Earlier results, collected in patent US20180242917A1, “SYSTEMS AND METHODS FOR DETERMINING IMAGE QUALITY AND MODELS BASED ON CONTRAST INJECTION PROTOCOLS” (Duke University, priority 2015, published 2018).

Design: unit not given here
Details: used to calculate total EC fluid volume (18.9 L incl. 3 L plasma) for a 70-kg adult patient

## CC(=O)N(CC(O)CO)c1c(I)c(C(=O)NCC(O)CO)c(I)c(C(=O)NCC(O)CO)c1I (stereo not shown) [iohexol]
  apparent volume value of distribution: 0.27
